# Test results: the NIST ThermoML archive (doi:10.1016/j.fluid.2017.10.025)
# ± gives the expanded uncertainty stated by the source.
# Legend:
# [1] = refractive index (Na D-line) (dimensionless); settings: 298.15 K; 101.33 kPa; Liquid; 2AWJ refractometer
# [2] = 293.15 K; 101.33 kPa; Liquid; buoyancy
Compound,refractive index [1],mass density [2]
C=CCO [2-propenol],1.4129 ± 0.0003,855 ± 0.7 kg/m3
O [water],1.3327 ± 0.0002,998.3 ± 0.6 kg/m3
